US9884063B2, “Amido-substituted azole compounds” (Bayer Pharma Aktiengesellschaft, priority 2014, dated 2018)

Tests used:
TNKS1 = biological target: T1, TNKS1 (Homo sapiens, UniProt O95271); experiment: Modified TNKS1 Assay 3 (BPS kit #80573, biotin-NAD+, 96 well); assay type: biochemical; conditions: human TNKS1, BPS kit #80573, 96 well
T1 sequence (O95271 1-1327): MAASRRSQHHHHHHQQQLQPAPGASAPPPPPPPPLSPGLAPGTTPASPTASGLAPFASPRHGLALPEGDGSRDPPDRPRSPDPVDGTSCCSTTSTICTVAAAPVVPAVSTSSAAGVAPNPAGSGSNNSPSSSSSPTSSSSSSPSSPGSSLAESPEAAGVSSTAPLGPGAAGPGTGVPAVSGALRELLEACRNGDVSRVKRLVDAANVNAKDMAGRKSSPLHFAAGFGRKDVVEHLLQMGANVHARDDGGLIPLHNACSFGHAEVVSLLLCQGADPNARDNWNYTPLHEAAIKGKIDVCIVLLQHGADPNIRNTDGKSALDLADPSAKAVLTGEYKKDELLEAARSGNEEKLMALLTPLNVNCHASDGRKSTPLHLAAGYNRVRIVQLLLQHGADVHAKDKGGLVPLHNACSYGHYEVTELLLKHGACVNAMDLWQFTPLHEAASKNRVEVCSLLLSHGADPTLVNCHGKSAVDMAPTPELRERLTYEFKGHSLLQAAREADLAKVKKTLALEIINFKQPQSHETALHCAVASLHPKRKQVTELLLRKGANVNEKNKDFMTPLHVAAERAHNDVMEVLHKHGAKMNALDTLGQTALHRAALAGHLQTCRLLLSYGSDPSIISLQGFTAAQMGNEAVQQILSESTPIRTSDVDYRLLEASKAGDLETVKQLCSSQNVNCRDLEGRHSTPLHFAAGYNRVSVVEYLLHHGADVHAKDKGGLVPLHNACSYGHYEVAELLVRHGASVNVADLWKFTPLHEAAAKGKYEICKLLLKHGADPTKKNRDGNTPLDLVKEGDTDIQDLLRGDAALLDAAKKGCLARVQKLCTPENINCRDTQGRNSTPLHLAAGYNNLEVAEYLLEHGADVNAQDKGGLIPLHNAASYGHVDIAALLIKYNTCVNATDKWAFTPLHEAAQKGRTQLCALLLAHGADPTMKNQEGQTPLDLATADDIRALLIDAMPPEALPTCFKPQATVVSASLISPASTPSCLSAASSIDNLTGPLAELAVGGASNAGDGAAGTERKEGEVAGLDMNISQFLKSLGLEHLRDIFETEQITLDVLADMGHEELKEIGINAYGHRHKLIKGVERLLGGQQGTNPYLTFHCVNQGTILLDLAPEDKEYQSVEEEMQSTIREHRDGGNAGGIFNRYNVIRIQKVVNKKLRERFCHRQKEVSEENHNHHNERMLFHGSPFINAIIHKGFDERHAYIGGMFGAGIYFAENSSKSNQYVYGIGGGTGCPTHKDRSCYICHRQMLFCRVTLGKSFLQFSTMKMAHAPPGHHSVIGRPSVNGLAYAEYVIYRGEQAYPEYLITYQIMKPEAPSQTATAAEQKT
In short: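 Chemiluminescent assay of TNKS1-catalysed ribosylation of a protein substrate with biotin-labelled NAD+, detected via streptavidin-HRP; run per kit protocol. Inhibition lowers the signal, and IC50 is the compound concentration halving the normalised readout.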

[1] = test system: wildtype Wnt signaling cascade; experiment: HEK293 TOP Assay (Super TopFlash luciferase reporter, Wnt-3a stimulated); assay type: cell-based; conditions: HEK293 TOP reporter cell line, Wnt-3a at EC50, 16 hours incubation, compound dilution series 50 μM to 15 nM
In short: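 HEK293 cells stably carrying Super TopFlash (TOP) or FOP reporter, stimulated with recombinant human Wnt-3a (2500–5 ng/ml, two-fold steps). Both lines incubated in parallel with compound from 50 μM to 15 nM (3.16-fold) in CAFTY buffer pH 7.4 with 2 mM Ca2+ and 0.01% BSA; selectivity judged TOP vs FOP.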

[2] = test system: HEK293 FOP control reporter cell line; experiment: HEK293 FOP Assay (FOP control vector luciferase reporter); assay type: cell-based; conditions: Homo sapiens; HEK293 FOP control reporter cell line, 16 hours incubation, compound dilution series 50 μM to 15 nM
In short: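 Stable HEK293 line carrying the FOP vector (randomized, non-functional TCF sites; Geneticin-selected) was run in parallel with the TOP line. Cells were plated 24 h ahead at 10000/well and given recombinant human Wnt-3a at 2500–5 ng/ml. Compounds were tested at 50 μM–15 nM (3.16-fold steps) in CAFTY buffer, pH 7.4, with 2 mM Ca2+ and 0.01% BSA.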

| SMILES | IC50 (TNKS1) [nM] | IC50 ([1]; Homo sapiens, HEK293, 16 h) [nM] | IC50 [1] [nM] | IC50 [2] [nM] |
| --- | --- | --- | --- | --- |
| CC(C)(N)CCNC(=O)c1[nH]cnc1C(=O)Nc1ccc(NC(=O)c2ccc(F)cc2Cl)cc1 [Example 286, N^5-(3-amino-3-methylbutyl)-N^4-{4-[(2-chloro-4-fluorobenzoyl)amino]phenyl}-1H-imidazole-4,5-dicarboxamide] | 70 | 460 | – | – |
| O=C(Nc1ccc(NC(=O)c2nc[nH]c2C(=O)NCCN2CCCC2)cc1)c1ccc(F)cc1Cl [Example 228, N^4-{4-[(2-chloro-4-fluorobenzoyl)amino]phenyl}-N^5-[2-(pyrrolidin-1-yl)ethyl]-1H-imidazole-4,5-dicarboxamide] | 20 | 30 | – | – |
| O=C(Nc1ccc(NC(=O)c2nc[nH]c2C(=O)NCCN2CCC[C@H](O)C2)cc1)c1ccc(F)cc1Cl [Example 271, N^4-{4-[(2-chloro-4-fluorobenzoyl)amino]phenyl}-N^5-{2-[(3S)-3-hydroxypiperidin-1-yl]ethyl}-1H-imidazole-4,5-dicarboxamide] | 6 | 30 | – | – |
| COC(=O)c1nc[nH]c1C(=O)Nc1ccc(NC(=O)c2ccc(F)cc2)c(OC)c1 [Example 102, methyl 5-({4-[(4-fluorobenzoyl)amino]-3-methoxyphenyl}carbamoyl)-1H-imidazole-4-carboxylate] | – | 50000 | – | – |
| CC(CN1CCOCC1)NC(=O)c1[nH]cnc1C(=O)Nc1ccc(NC(=O)c2ccc(F)cc2)cc1 (single isomer, unassigned; enantiomer 2) [Example 296, N^4-{4-[(4-fluorobenzoyl)amino]phenyl}-N^5-[1-(morpholin-4-yl)propan-2-yl]-1H-imidazole-4,5-dicarboxamide (enantiomer 2)] | > 500 | – | 6450 | – |
| Cc1cc(NC(=O)c2[nH]cnc2C(=O)NCCN2CCCCC2)ccc1NC(=O)c1ccccc1Cl [Example 89, N^5-{4-[(2-chlorobenzoyl)amino]-3-methylphenyl}-N^4-[2-(piperidin-1-yl)ethyl]-1H-imidazole-4,5-dicarboxamide] | – | 600 | – | – |
| CC(C)(N)CNC(=O)c1[nH]cnc1C(=O)Nc1ccc(NC(=O)c2ccc(F)cc2Cl)cc1 [Example 280, N^5-(2-amino-2-methylpropyl)-N^4-{4-[(2-chloro-4-fluorobenzoyl)amino]phenyl}-1H-imidazole-4,5-dicarboxamide] | 60 | 1050 | – | – |
| NC(=O)c1nc[nH]c1C(=O)Nc1ccc(NC(=O)c2ccccc2Cl)cc1 [Example 120, N^5-{4-[(2-chlorobenzoyl)amino]phenyl}-1H-imidazole-4,5-dicarboxamide] | > 500 | 1200 | – | – |
| CCNC(=O)c1[nH]cnc1C(=O)Nc1ccc(NC(=O)c2ccc(F)cc2Cl)cc1 [Example 138, N^4-{4-[(2-chloro-4-fluorobenzoyl)amino]phenyl}-N^5-ethyl-1H-imidazole-4,5-dicarboxamide] | 260 | 260 | – | – |
| CNC(=O)c1nc[nH]c1C(=O)Nc1ccc(NC(=O)c2ccc(F)cc2Cl)c(OC)c1 [Example 95, N^5-{4-[(2-chloro-4-fluorobenzoyl)amino]-3-methoxyphenyl}-N^4-methyl-1H-imidazole-4,5-dicarboxamide] | – | 270 | – | – |
| CCc1nc(C(=O)Nc2ccc(NC(=O)c3ccc(F)cc3Cl)cc2)c(C(=O)NCCN2CCCCC2)[nH]1 [Example 70, N^4-{4-[(2-chloro-4-fluorobenzoyl)amino]phenyl}-2-ethyl-N^5-[2-(piperidin-1-yl)ethyl]-1H-imidazole-4,5-dicarboxamide] | 20 | 130 | – | – |
| COc1cc(NC(=O)c2[nH]cnc2C(=O)NCCN(C)C)ccc1NC(=O)c1ccccc1Cl [Example 100, N^5-{4-[(2-chlorobenzoyl)amino]-3-methoxyphenyl}-N^4-[2-(dimethylamino)ethyl]-1H-imidazole-4,5-dicarboxamide] | – | 790 | – | – |
| CC(C)(O)CNC(=O)c1[nH]cnc1C(=O)Nc1ccc(NC(=O)c2ccc(F)cc2Cl)cc1 [Example 223, N^4-{4-[(2-chloro-4-fluorobenzoyl)amino]phenyl}-N^5-(2-hydroxy-2-methylpropyl)-1H-imidazole-4,5-dicarboxamide] | > 500 | 330 | – | – |
| CNC(=O)c1[nH]c(C(C)C)nc1C(=O)Nc1ccc(NC(=O)c2ccc(F)cc2Cl)cc1 [Example 106, N^4-{4-[(2-chloro-4-fluorobenzoyl)amino]phenyl}-2-isopropyl-N^5-methyl-1H-imidazole-4,5-dicarboxamide] | – | 27000 | – | 13000 |
| O=C(Nc1ccc(NC(=O)c2nc[nH]c2C(=O)NCC2CCCO2)cc1)c1ccc(F)cc1Cl (stereo not shown) [Example 237, N^4-{4-[(2-chloro-4-fluorobenzoyl)amino]phenyl}-N^5-(tetrahydrofuran-2-ylmethyl)-1H-imidazole-4,5-dicarboxamide] | > 500 | 430 | – | – |
| O=C(Nc1ccc(NC(=O)c2nc[nH]c2C(=O)N2CC3(COC3)C2)cc1)c1ccc(F)cc1Cl [Example 145, N-{4-[(2-chloro-4-fluorobenzoyl)amino]phenyl}-5-(2-oxa-6-azaspiro[3.3]hept-6-ylcarbonyl)-1H-imidazole-4-carboxamide] | > 500 | 290 | – | – |
| CNC(=O)c1nc[nH]c1C(=O)Nc1ccc(NC(=O)c2ccc(C#N)cc2F)cc1 [Example 369, N^5-{4-[(4-cyano-2-fluorobenzoyl)amino]phenyl}-N^4-methyl-1H-imidazole-4,5-dicarboxamide] | 260 | 750 | – | – |
| CN(C)CCNC(=O)c1nc[nH]c1C(=O)Nc1ccc(NC(=O)c2ccccc2Cl)nc1 [Example 113, N^5-{6-[(2-chlorobenzoyl)amino]pyridin-3-yl}-N^4-[2-(dimethylamino)ethyl]-1H-imidazole-4,5-dicarboxamide] | – | 460 | – | – |
| CNC(=O)c1nc[nH]c1C(=O)Nc1ccc(NC(=O)c2ccccc2Cl)nc1 [Example 112, N^5-{6-[(2-chlorobenzoyl)amino]pyridin-3-yl}-N^4-methyl-1H-imidazole-4,5-dicarboxamide] | – | 2550 | – | – |
| COC(=O)c1nc[nH]c1C(=O)Nc1ccc(NC(=O)c2ccc(F)cc2Cl)c(OC)c1 [Example 94, methyl 5-({4-[(2-chloro-4-fluorobenzoyl)amino]-3-methoxyphenyl}carbamoyl)-1H-imidazole-4-carboxylate] | – | 830 | – | – |
| COc1cc(NC(=O)c2[nH]cnc2C(=O)NCCN(C)C)ccc1NC(=O)c1ccc(F)cc1Cl [Example 96, N^5-{4-[(2-chloro-4-fluorobenzoyl)amino]-3-methoxyphenyl}-N^4-[2-(dimethylamino)ethyl]-1H-imidazole-4,5-dicarboxamide] | – | 310 | – | – |
| COC(=O)c1nc[nH]c1C(=O)Nc1ccc(NC(=O)c2ccccc2Cl)c(OC)c1 [Example 98, methyl 5-({4-[(2-chlorobenzoyl)amino]-3-methoxyphenyl}carbamoyl)-1H-imidazole-4-carboxylate] | – | 1150 | – | – |
| COC(=O)c1nc[nH]c1C(=O)Nc1ccc(NC(=O)c2ccccc2Cl)c(C)c1 [Example 86, methyl-5-({4-[(2-chlorobenzoyl)amino]-3-methylphenyl}carbamoyl)-1H-imidazole-4-carboxylate] | – | 420 | – | 23000 |
